# Tests used:
# Assay type in all cases: binding
# [1] = target: T1, SW480 colon carcinoma cells lysate proteins (Homo sapiens, UniProt P35527); conditions: PreyGene KRT9
# T1 sequence (P35527 1-623): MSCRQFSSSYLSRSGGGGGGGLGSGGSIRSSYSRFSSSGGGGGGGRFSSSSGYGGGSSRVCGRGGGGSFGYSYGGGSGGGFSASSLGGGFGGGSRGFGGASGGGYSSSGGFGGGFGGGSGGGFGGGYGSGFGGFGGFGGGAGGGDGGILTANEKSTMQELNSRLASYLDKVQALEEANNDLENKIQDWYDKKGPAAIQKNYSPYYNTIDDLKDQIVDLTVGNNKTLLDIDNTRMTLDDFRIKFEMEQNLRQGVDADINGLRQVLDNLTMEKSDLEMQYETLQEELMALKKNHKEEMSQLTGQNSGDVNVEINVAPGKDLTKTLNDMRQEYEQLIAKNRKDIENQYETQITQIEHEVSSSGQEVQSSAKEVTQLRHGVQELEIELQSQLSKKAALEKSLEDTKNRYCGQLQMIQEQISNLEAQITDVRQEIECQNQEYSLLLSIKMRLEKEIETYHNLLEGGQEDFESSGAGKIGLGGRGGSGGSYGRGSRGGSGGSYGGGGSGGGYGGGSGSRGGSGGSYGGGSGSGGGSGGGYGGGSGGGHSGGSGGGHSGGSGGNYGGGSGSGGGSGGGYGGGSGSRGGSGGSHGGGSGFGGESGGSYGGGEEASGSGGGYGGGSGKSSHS
# [2] = target: SW480 colon carcinoma cells lysate proteins (Homo sapiens, UniProt P55263); conditions: PreyGene ADK
# [3] = target: T2, SW480 colon carcinoma cells lysate proteins (Homo sapiens, UniProt Q7RTS7); conditions: PreyGene KRT74; SW480 cells
# T2 sequence (Q7RTS7 1-529): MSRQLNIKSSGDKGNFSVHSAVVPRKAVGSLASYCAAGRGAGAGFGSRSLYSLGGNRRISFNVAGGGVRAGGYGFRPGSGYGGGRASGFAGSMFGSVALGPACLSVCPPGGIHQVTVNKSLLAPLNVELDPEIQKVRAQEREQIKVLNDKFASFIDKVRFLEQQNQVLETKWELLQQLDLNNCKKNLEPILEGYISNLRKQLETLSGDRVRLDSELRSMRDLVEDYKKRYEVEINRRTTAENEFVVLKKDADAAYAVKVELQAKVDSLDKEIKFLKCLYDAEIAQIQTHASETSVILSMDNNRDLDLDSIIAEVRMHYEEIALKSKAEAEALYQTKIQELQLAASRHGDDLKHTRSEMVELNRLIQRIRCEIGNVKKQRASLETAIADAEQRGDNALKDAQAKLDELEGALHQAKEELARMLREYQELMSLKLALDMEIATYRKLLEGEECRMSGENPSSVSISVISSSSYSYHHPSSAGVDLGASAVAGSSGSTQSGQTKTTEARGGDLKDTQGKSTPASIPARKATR
# [4] = target: SW480 colon carcinoma cells lysate proteins (Homo sapiens, UniProt P62861); conditions: PreyGene FAU
# [5] = target: T3, SW480 colon carcinoma cells lysate proteins (Homo sapiens, UniProt P52565); conditions: PreyGene ARHGDIA
# T3 sequence (P52565 1-204): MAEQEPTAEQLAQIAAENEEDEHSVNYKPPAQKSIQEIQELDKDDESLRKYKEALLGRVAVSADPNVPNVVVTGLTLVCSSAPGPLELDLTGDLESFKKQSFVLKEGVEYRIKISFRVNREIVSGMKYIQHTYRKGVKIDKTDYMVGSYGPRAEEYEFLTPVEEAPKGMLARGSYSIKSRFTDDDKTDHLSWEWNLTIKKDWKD
# [6] = target: T4, SW480 colon carcinoma cells lysate proteins (Homo sapiens, UniProt Q9Y617); conditions: PreyGene PSAT1
# T4 sequence (Q9Y617 1-370): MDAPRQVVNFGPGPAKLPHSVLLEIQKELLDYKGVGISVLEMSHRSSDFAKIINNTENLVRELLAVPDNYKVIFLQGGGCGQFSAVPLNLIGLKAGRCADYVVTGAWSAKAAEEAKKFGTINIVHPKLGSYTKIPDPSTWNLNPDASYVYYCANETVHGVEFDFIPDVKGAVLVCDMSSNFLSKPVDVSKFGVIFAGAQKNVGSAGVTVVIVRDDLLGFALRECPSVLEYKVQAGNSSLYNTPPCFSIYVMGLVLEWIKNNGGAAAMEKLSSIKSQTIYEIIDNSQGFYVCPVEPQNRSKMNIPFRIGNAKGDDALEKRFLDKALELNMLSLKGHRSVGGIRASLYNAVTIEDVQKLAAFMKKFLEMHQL
# Chain of SW480 colon carcinoma cells lysate proteins (Homo sapiens, UniProt P55263) (P55263 whole entry): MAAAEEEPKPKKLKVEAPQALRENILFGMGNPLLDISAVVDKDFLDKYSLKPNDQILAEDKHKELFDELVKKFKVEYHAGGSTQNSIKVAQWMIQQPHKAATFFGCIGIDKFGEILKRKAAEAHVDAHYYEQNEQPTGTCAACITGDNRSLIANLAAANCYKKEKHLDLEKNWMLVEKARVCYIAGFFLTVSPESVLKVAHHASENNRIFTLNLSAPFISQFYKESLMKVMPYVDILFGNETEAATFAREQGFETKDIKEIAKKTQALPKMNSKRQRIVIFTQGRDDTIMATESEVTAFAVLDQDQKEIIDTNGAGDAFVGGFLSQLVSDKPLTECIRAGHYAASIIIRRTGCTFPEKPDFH
smiles,measurement,setting,value
C[C@H](Oc1cc(-c2cnn(C3CCNCC3)c2)cnc1N)c1c(Cl)ccc(F)c1Cl [(5)-crizotinib],AvgP,[1],0.1979
same,SC.Exp. 1-1,[1],18
same,SC.Exp. 1-2,[1],15
same,SC.Exp. 2-1,[1],4
same,SC.Exp. 2-2,[1],6
same,Sum (SC.Exp.),[1],43
same,AvgP,[2],0.4613
same,SC.Exp. 1-1,[2],4
same,SC.Exp. 1-2,[2],3
same,SC.Exp. 2-1,[2],0
same,SC.Exp. 2-2,[2],0
same,Sum (SC.Exp.),[2],7
same,AvgP,[3],0
same,SC.Exp. 1-1,[3],1
same,SC.Exp. 1-2,[3],1
same,SC.Exp. 2-1,[3],0
same,SC.Exp. 2-2,[3],0
same,SC.Exp. Sum,[3],2
same,AvgP,[4],0.2109
same,SC.Exp. 1-1,[4],2
same,SC.Exp. 1-2,[4],4
same,SC.Exp. 2-1,[4],0
same,SC.Exp. 2-2,[4],2
same,Sum (SC.Exp.),[4],8
same,AvgP,[5],0.4128
same,SC.Exp. 1-1,[5],2
same,SC.Exp. 1-2,[5],3
same,SC.Exp. 2-1,[5],0
same,SC.Exp. 2-2,[5],0
same,Sum (SC.Exp.),[5],5
same,AvgP,[6],0.3916
same,SC.Exp. 1-1,[6],3
same,SC.Exp. 1-2,[6],3
same,SC.Exp. 2-1,[6],0
same,SC.Exp. 2-2,[6],0
same,Sum (SC.Exp.),[6],6

# — patent US9446039B2, “Aminoheteroaryl compounds as MTH1 inhibitors” (CEMM—FORSCHUNGSZENTRUM FÜR MOLEKULARE MEDIZIN GMBH, priority 2012, dated 2016)
